Measured values reported in ChEMBL document CHEMBL5370637, “Receptor Interacting Ser/Thr-Protein Kinase 2 as a New Therapeutic Target” (J Med Chem, 2023).
Each block holds one molecule with its values, some of them ahead of it.

Tests used:
[1] = target: T1, Receptor-interacting serine/threonine-protein kinase 2 (Homo sapiens, UniProt O43353); experiment: Inhibition of recombinant RIPK2 (unknown origin) expressed in insect cells using RBER-CHKtide as substrate assessed as inhibition of tyrosine autophosphorylation preincubated with compound for 15 mins followed by substrate addition and measured after 30 mins; design: species or system Insect cell
[2] = target: MAP kinase p38 (Homo sapiens, UniProt O15264+Q15759+Q16539+P53778); experiment: Inhibition of p38 (unknown origin) by KINOMEscan assay; type: protein assay
[3] = target: T1, Receptor-interacting serine/threonine-protein kinase 2; experiment: Inhibition of recombinant RIPK2 (unknown origin) using CRRKSLVGTPYWMAPE peptide as substrate assessed as inhibition of autophosphorylation incubated for 90 mins in presence of ATP by Transcreener ADP FP assay; design: species or system Insect cell
[4] = target: Epidermal growth factor receptor (Homo sapiens, UniProt P00533); experiment: Inhibition of EGFR (unknown origin) by KINOMEscan assay
[5] = Inhibition of RIPK (unknown origin) by KINOMEscan assay; design: species or system Homo sapiens
[6] = target: T1, Receptor-interacting serine/threonine-protein kinase 2; experiment: Inhibition of human RIPK2 assessed as inhibition of autophosphorylation incubated for 45 to 60 mins in presence of 32P-gamma-ATP by immunoprecipitation analysis
[7] = Induction of apoptosis in human GBM1 cells incubated for 48 hrs by immunofluorescent analysis; type: functional, cell-based; conditions: GBM1, 48 h
[8] = target: T1, Receptor-interacting serine/threonine-protein kinase 2; experiment: Inhibition of RIPK2 (unknown origin)
[9] = target: T1, Receptor-interacting serine/threonine-protein kinase 2

T1 sequence (O43353 whole entry): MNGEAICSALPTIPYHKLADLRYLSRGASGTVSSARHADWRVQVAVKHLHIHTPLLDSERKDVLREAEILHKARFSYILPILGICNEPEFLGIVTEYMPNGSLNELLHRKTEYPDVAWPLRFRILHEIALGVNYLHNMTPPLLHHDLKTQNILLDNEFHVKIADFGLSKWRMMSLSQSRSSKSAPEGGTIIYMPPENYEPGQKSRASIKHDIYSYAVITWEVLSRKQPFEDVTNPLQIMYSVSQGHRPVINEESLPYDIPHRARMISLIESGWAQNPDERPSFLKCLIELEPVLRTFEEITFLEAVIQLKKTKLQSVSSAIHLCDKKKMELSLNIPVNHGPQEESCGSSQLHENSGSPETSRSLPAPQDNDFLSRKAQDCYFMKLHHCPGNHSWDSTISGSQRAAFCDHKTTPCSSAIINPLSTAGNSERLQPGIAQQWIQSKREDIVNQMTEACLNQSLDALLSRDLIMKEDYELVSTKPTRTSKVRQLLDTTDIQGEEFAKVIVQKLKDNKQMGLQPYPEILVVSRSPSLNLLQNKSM
Sequence of Epidermal growth factor receptor (P00533 whole entry): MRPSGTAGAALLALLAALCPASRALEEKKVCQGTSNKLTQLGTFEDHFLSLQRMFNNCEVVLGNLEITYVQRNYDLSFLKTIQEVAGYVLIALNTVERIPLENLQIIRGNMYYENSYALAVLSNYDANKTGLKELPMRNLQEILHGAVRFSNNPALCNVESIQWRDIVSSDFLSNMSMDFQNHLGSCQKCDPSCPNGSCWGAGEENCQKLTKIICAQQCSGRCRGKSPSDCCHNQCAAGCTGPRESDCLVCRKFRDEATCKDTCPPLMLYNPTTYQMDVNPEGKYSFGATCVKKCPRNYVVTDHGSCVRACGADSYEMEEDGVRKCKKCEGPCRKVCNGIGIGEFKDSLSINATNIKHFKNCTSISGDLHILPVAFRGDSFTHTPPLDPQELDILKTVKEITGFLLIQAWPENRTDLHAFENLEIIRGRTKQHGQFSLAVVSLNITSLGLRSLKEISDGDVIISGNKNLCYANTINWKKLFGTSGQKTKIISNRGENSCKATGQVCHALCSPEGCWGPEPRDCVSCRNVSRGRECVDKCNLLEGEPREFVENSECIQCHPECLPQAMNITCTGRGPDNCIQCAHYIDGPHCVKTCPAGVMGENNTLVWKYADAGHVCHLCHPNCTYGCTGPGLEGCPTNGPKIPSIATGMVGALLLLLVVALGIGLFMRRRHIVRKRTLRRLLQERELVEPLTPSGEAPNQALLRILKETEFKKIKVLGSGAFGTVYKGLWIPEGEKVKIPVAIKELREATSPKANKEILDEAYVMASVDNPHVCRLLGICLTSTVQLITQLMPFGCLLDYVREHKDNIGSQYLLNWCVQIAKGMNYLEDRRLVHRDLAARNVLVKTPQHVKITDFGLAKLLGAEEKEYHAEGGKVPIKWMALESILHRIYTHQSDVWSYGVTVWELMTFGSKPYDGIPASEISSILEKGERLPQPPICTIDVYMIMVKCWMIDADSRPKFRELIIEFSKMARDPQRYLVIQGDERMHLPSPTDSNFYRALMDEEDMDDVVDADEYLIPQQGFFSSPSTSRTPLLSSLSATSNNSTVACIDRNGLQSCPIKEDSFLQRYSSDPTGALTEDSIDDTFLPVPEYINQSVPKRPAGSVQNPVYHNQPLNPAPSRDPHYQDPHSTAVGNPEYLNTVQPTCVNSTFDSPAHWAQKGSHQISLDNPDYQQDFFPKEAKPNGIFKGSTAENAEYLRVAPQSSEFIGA

IC50 [1]: 0.0053 µM
Structure (SMILES): Clc1cc2cc(c1)-c1cnn3ccc(nc13)NCCOCCO2

IC50 [2]: > 10 µM
IC50 [3]: 0.134 µM
IC50 [4]: > 10 µM
IC50 [5]: > 10 µM
Structure (SMILES): Cc1ccc(-c2nn(C(C)(C)CNC(=O)c3ccncc3)c3ncnc(N)c23)cc1

IC50 [6]: 0.01 µM
Structure (SMILES): Cc1ccc(C(=O)Nc2cccc(-c3nccn3C)c2)cc1NC(=O)c1ccccc1

IC50 [1]: 0.0141 µM
Structure (SMILES): c1cc2cc(n1)NCCOCCNc1ccn3ncc-2c3n1

Structure (SMILES): Cc1n(Cc2ccc(F)cc2)c2c([n+]1Cc1ccccc1)C(=O)c1ccccc1C2=O
EC50 [7]: 0.068 µM

IC50 [8]: 8 µM
Structure (SMILES): N=C(N)NCCC[C@@H]1NC(=O)/C(=C/c2c[nH]c3cc(Br)ccc23)NC1=O [BARETTIN]

IC50 [9]: 0.07 µM
Structure (SMILES): O=[N+]([O-])c1ccc(-c2nc(-c3ccncc3)c(-c3ccc(F)cc3)[nH]2)cc1 [PD-169316]

IC50 [9]: 0.7 µM
Structure (SMILES): Nc1nccc(-c2c(-c3ccc(F)cc3)ncn2C2CCNCC2)n1 [SB-220025]
